{"source": "patent US20230183305A1", "about": "“KERATIN BD-11, PREPARATION METHOD THEREFOR AND PHARMACEUTICAL COMPOSITION AND USE THEREOF” (INSTITUTE OF MATERIA MEDICA, CHINESE ACADEMY OF MEDICAL …, priority 2019, published 2023)", "test_system": "tracheal phenol red excretion in ICR mice", "test": "Expectorant test, phenol red excretion method in mice", "assay_type": "in vivo, mouse", "description": "• Animals: male ICR mice; • Drugs and reagents: Mucosolvan (ambroxol hydrochloride tablets), phenol red, sodium bicarbonate, protein BD-11; • Instruments: centrifuge (Sigma-3K15 type), balance (XS105DU type), Microplate tester (BIO-TEK type).\nExperiment grouping: • Solvent control group; • Mucosolvan 30 mg/kg group; • Protein BD-11, 20 mg/kg group, 50 mg/kg group.\nThe animals were fasted and water was taken freely 16 hours before the experiment. Orally administered Mucosolvan and different doses of protein BD-11 (administration volume 10 ml/kg) in groups, and the solvent control group was given the same volume of distilled water. One hour later, 2.5% phenol red solution was injected intraperitoneally. Mice were sacrificed by neck dislocation after 30 minutes. Take a trachea from below the thyroid cartilage to the branch of the trachea, and put the trachea into 3 ml 5% NaHCO3 solution and let it stand for 3 hours. Take 1 ml of the supernatant and centrifuge at 3000 rpm for 5 minutes. Measure and record the absorbance at 546 nm. According to the standard curve of phenol red, the excretion of phenol red was calculated.\nRecord the time point of oral administration, the time point of intraperitoneal injection of 2.5% phenol red solution, and the time point of taking the trachea respectively; The absorbance of each group of samples was measured by the microplate reader at 546 nm, Calculate the excretion of phenol red according to the standard curve of phenol red. Calculate the mean and standard error of the data in each group, and use TTEST to compare the solvent control group with other groups, and P<0.05 is considered as a significant difference.\nGive Mucosolvan (30 mg/kg) and different doses of protein BD-11 (20 mg/kg, 50 mg/kg). One hour later, 2.5% phenol red solution was intraperitoneally injected, and 30 minutes later, the mice were sacrificed by neck dislocation. Take the trachea from below the thyroid cartilage to the branch of the trachea, put the trachea into 3 ml of 5% NaHCO3 solution and let it stand for 3 hours, take 1 ml of supernatant, centrifuge at 3000 rpm for 5 minutes, measure and record the absorbance at 546 nm. According to the standard curve of phenol red, the excretion of phenol red was calculated.", "note": "Where a name gives a salt, the structure may show the parent alone.", "data": [{"molecule": "Nc1c(Br)cc(Br)cc1CN[C@H]1CC[C@H](O)CC1", "note": "[Mucosolvan, ambroxol hydrochloride, reference compound]", "values": [{"measurement": "Phenol red excretion", "setting": "Mucosolvan 30 mg/kg oral, X±SEM, n=10", "value": "1.061 ± 0.117", "unit": "µg/mL"}, {"measurement": "Amount of phenol red excretion vs solvent control group", "setting": "Mucosolvan 30 mg/kg, P<0.05", "value": "significantly increased"}]}]}
